# Data taken from patent publication US20220387411A1, “TARGETED AUTOPHAGY CONJUGATES AND METHODS” (Frontier Medicines Corporation, priority 2019, published 2022).
# Molecular target: T1, Recombinant pure human SQSTM1 protein (Homo sapiens, UniProt Q13501)
# T1 construct: purchased Origene
# Experiment: Inhibition of IA-Rhodamine labeling of SQSTM1 (gel-based, densitometry)
# Format: binding
# Details: 50 μM of test compound (initial screen); 30 min at 37° C., then 100 nM IA-Rhodamine 1 hour; inhibition of target labeling by densitometry
# Protocol: Recombinant pure human SQSTM1 protein was purchased from Origene. SQSTM1 protein (0.21 μg) was diluted into 50 μL of PBS and 1 μL of either DMSO (vehicle) or covalently acting small molecule (test compound) to achieve the desired concentration. After 30 min. at 37° C., the samples were treated with 100 nM IA-Rhodamine (tetramethylrhodamine-5-iodoacetamide dihydroiodide; Setareh Biotech, 6222, prepared in anhydrous DMSO) for 1 hour at room temperature. Samples were then diluted with 20 μL of 4× reducing Laemmli SDS sample loading buffer (Alfa Aesar) and heated at 90° C. for 5 min. The samples were separated on precast 4-20% Criterion TGX gels (Bio-Rad Laboratories, Inc.). Fluorescent imaging was performed on a ChemiDoc MP instrument (Bio-Rad Laboratories, Inc.), and inhibition of target labeling was assessed by densitometry using ImageJ software. The initial screen was performed using 50 μM of test compound.
# T1 sequence (Q13501 whole entry): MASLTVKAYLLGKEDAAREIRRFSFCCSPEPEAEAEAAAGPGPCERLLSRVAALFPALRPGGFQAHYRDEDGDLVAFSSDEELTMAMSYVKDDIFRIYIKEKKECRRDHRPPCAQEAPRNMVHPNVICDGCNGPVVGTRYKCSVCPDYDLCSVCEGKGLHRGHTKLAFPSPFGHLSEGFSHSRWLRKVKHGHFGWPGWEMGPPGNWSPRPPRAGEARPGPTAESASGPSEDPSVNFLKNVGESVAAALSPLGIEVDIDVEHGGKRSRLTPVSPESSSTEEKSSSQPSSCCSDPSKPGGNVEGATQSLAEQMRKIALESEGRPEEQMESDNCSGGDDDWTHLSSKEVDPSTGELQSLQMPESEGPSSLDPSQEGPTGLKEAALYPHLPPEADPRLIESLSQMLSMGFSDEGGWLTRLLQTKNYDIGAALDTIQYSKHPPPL
inhibition at 50 µM [%],% inhibition,SMILES
–,not active,"O=C(CCl)N1CCC(F)C(O)(C(F)(F)F)CC1 (stereo not drawn) [Compound 24, 2-chloro-1-(5-fluoro-4-hydroxy-4-(trifluoromethyl)azepan-1-yl)ethanone]"
31,–,"CCOC(=O)C1(C)CCCCN(C(=O)CCl)C1 (stereo not drawn) [Compound 25, Ethyl 1-(2-chloroacetyl)-3-methylazepane-3-carboxylate]"
70,–,"CC1(CNC(=O)OCc2ccccc2)CCCCN(C(=O)CCl)C1 (stereo not drawn) [Compound 26, Benzyl ((1-(2-chloroacetyl)-3-methylazepan-3-yl)methyl)carbamate]"
58,–,"O=C(NCC1CCCCN(C(=O)CCl)C1)OCc1ccccc1 (stereo not drawn) [Compound 27, Benzyl ((1-(2-chloroacetyl)azepan-3-yl)methyl)carbamate]"
59,–,"CC1CN(C(=O)CCl)CCCC1CNC(=O)OCc1ccccc1 (stereo not drawn) [Compound 28, Benzyl ((1-(2-chloroacetyl)-3-methylazepan-4-yl)methyl)carbamate]"
38,–,"CC1(F)CCCCN(C(=O)CCl)C1 (stereo not drawn) [Compound 29, 2-chloro-1-(3-fluoro-3-methylazepan-1-yl)ethanone]"
50,–,"O=C(NCC1(O)CCCCN(C(=O)CCl)C1)OCc1ccccc1 (stereo not drawn) [Compound 30, Benzyl ((1-(2-chloroacetyl)-3-hydroxyazepan-3-yl)methyl)carbamate]"
39,–,"CC1CCCCN(C(=O)CCl)C1 (stereo not drawn) [Compound 31, 2-chloro-1-(3-methylazepan-1-yl)ethanone]"
17,–,"O=C(CCl)N1CCCCC(O)(CF)C1 (stereo not drawn) [Compound 32, 2-chloro-1-(3-(fluoromethyl)-3-hydroxyazepan-1-yl)ethanone]"
32,–,"O=C(CCl)N1CCCC(O)(C(F)(F)F)CC1 (stereo not drawn) [Compound 33, 2-chloro-1-(4-hydroxy-4-(trifluoromethyl)azepan-1-yl)ethanone]"
14,–,"O=C(NCC1(O)CCCN(C(=O)CCl)CC1)OCc1ccccc1 (stereo not drawn) [Compound 34, Benzyl ((1-(2-chloroacetyl)-4-hydroxyazepan-4-yl)methyl)carbamate]"
17,–,"CC1(CNC(=O)OCc2ccccc2)CCCN(C(=O)CCl)CC1 (stereo not drawn) [Compound 35, Benzyl ((1-(2-chloroacetyl)-4-methylazepan-4-yl)methyl)carbamate]"
34,–,"CC1(F)CCCN(C(=O)CCl)CC1 (stereo not drawn) [Compound 36, 2-chloro-1-(4-fluoro-4-methylazepan-1-yl)ethanone]"
30,–,"CC(C)(C)OC(=O)NC1CCCCN(C(=O)CCl)C1 (stereo not drawn) [Compound 37, Tert-butyl (1-(2-chloroacetyl)azepan-3-yl)carbamate]"
40,–,"O=C(NCC1(F)CCCN(C(=O)CCl)CC1)OCc1ccccc1 (stereo not drawn) [Compound 38, Benzyl ((1-(2-chloroacetyl)-4-fluoroazepan-4-yl)methyl)carbamate]"
20,–,"CC1(O)CCCCN(C(=O)CCl)C1 (stereo not drawn) [Compound 39, 2-chloro-1-(3-hydroxy-3-methylazepan-1-yl)ethanone]"
–,not active,"CC1CCN(C(=O)CCl)CCC1(F)F (stereo not drawn) [Compound 40, 2-chloro-1-(4,4-difluoro-5-methylazepan-1-yl)ethanone]"
54,–,"CC1CCN(C(=O)CCl)CCC1CNC(=O)OCc1ccccc1 (stereo not drawn) [Compound 41, Benzyl ((1-(2-chloroacetyl)-5-methylazepan-4-yl)methyl)carbamate]"
32,–,"CC1CCN(C(=O)CCl)CCC1=O (stereo not drawn) [Compound 42, 1-(2-chloroacetyl)-5-methylazepan-4-one]"
25,–,"O=C(CCl)N1CCC(F)C(F)(F)CC1 (stereo not drawn) [Compound 43, 2-chloro-1-(4,4,5-trifluoroazepan-1-yl)ethanone]"
13,–,"O=C(CCl)N1CCCCC(O)C1 (stereo not drawn) [Compound 44, 2-chloro-1-(3-hydroxyazepan-1-yl)ethanone]"
–,not active,"CC1CCN(C(=O)CCl)CCC1O (stereo not drawn) [Compound 45, 2-chloro-1-(4-hydroxy-5-methylazepan-1-yl)ethanone]"
31,–,"O=C(NC1CCCN(C(=O)CCl)CC1)OCc1ccccc1 (stereo not drawn) [Compound 46, Benzyl (1-(2-chloroacetyl)azepan-4-yl)carbamate]"
36,–,"O=C1CCN(C(=O)CCl)CCC1F (stereo not drawn) [Compound 47, 1-(2-chloroacetyl)-5-fluoroazepan-4-one]"
7,–,"O=C(CCl)N1CCC(O)C(F)CC1 (stereo not drawn) [Compound 48, 2-chloro-1-(4-fluoro-5-hydroxyazepan-1-yl)ethanone]"
9,–,"CC1(O)CCCN(C(=O)CCl)CC1 (stereo not drawn) [Compound 49, 2-chloro-1-(4-hydroxy-4-methylazepan-1-yl)ethanone]"
17,–,"O=C(CCl)N1CCOCC(F)(F)C1 [Compound 50, 2-chloro-1-(6,6-difluoro-1,4-oxazepan-4-yl)ethanone]"
33,–,"O=C(CCl)N1CCCSCC1 [Compound 51, 2-chloro-1-(1,4-thiazepan-4-yl)ethanone]"
40,–,"O=C(CCl)N1CCCS(=O)(=O)CC1 [Compound 52, 2-chloro-1-(1,1-dioxido-1,4-thiazepan-4-yl)ethanone]"
52,–,"CCOC(=O)c1ncn2c1CN(C(=O)CCl)CCC2 [Compound 53, Ethyl 8-(2-chloroacetyl)-6,7,8,9-tetrahydro-5H-imidazo[1,5-a][1,4]diazepine-1-carboxylate]"

# Second part, the compound before the results:
SMILES,inhibition at 50 µM [%],% inhibition
"O=C(CCl)N(Cc1ccccc1)C1CCCC[C@H]1CO (stereo in doubt) [Compound 3, N-benzyl-2-chloro-N-(cis-2-(hydroxymethyl)cyclohexyl)acetamide]",58,–
"O=C(CCl)N(Cc1ccccc1)C1CCCCC1 [Compound 2, N-benzyl-2-chloro-N-cyclohexylacetamide]",50,–
"O=C(CCl)N(Cc1ccccc1)[C@H]1CCC[C@@H]1O [Compound 4, N-benzyl-2-chloro-N-((1S,2S)-2-hydroxycyclopentyl)acetamide]",18,–
"O=C(CCl)N(Cc1ccccc1)[C@H]1COC[C@@H]1O [Compound 5, N-benzyl-2-chloro-N-((3S,4R)-4-hydroxytetrahydrofuran-3-yl)acetamide]",–,25%
"CC(C)(C)OC(=O)N1CCC(N(C(=O)CCl)C2CC2)CC1 [Compound 6, Tert-butyl 4-(2-chloro-N-cyclopropylacetamido)piperidine-1-carboxylate]",56,–
"CC(C)(C)OC(=O)N1CCC(N(C(=O)CCl)C2CCOCC2)CC1 [Compound 7, Tert-butyl 4-(2-chloro-N-(tetrahydro-2H-pyran-4-yl)acetamido)piperidine-1-carboxylate]",61,–
"CC(C)N(C(=O)CCl)C1CCCN(C(=O)OC(C)(C)C)CC1 (stereo not drawn) [Compound 8, Tert-butyl 4-(2-chloro-N-isopropylacetamido)azepane-1-carboxylate]",50,–
"COC(=O)c1ccc(CN(C(=O)CCl)C2CCN(C(=O)OC(C)(C)C)CC2)[nH]1 [Compound 9, Tert-butyl 4-(2-chloro-N-((5-(methoxycarbonyl)-1H-pyrrol-2-yl)methyl)acetamido) piperidine-1-carboxylate]",64,–
"O=C(CCl)N(Cc1ccccc1)[C@H]1COC[C@@H]1O [Compound 10, N-benzyl-2-chloro-N-[(3S,4R)-4-hydroxytetrahydrofuran-3-yl]acetamide]",17,–
"O=C1CC(N(Cc2ccccc2)C(=O)CCl)CN1Cc1ccccc1 (stereo not drawn) [Compound 11, N-benzyl-N-(1-benzyl-5-oxo-pyrrolidin-3-yl)-2-chloro-acetamide]",57,–
"C[C@H]1CN(C(=O)OC(C)(C)C)CCCN1C(=O)CCl [Compound 12, (S)-tert-butyl 4-(2-chloroacetyl)-3-methyl-1,4-diazepane-1-carboxylate]",–,not active
"CC1CCCCCN1C(=O)CCl (stereo not drawn) [Compound 13, 2-chloro-1-(2-methylazepan-1-yl)ethan-1-one]",49,–
"CCN1CCCN(C(=O)CCl)CC1 [Compound 14, 2-chloro-1-(4-ethyl-1,4-diazepan-1-yl)ethan-1-one]",38,–
"O=C(CCl)N1CCCC(O)CC1 (stereo not drawn) [Compound 15, 2-chloro-1-(4-hydroxyazepan-1-yl)ethan-1-one]",29,–
"O=C(CCl)N1CCCN(c2ccc(F)cn2)CC1 [Compound 16, 2-chloro-1-(4-(5-fluoropyridin-2-yl)-1,4-diazepan-1-yl)ethanone]",20,–
"COC(=O)N1CCCN(C(=O)CCl)CC1 [Compound 17, Methyl 4-(2-chloroacetyl)-1,4-diazepane-1-carboxylate]",9,–
"CC(C)(C)OC(=O)N1CCN(C(=O)CCl)CC(O)C1 (stereo not drawn) [Compound 18, Tert-butyl 4-(2-chloroacetyl)-6-hydroxy-1,4-diazepane-1-carboxylate]",21,–
"O=C(CCl)N1CCCC(F)CC1 (stereo not drawn) [Compound 20, 2-chloro-1-(4-fluoroazepan-1-yl)ethanone]",9,–
"CC1CCCN(C(=O)CCl)CC1 (stereo not drawn) [Compound 21, 2-chloro-1-(4-methylazepan-1-yl)ethanone]",11,–
"CC1CN(C(=O)CCl)CCCO1 (stereo not drawn) [Compound 22, 2-chloro-1-(2-methyl-1,4-oxazepan-4-yl)ethanone]",–,not active
"CC1(C)CCCN(C(=O)CCl)CC1 [Compound 23, 2-chloro-1-(4,4-dimethylazepan-1-yl)ethanone]",21,–
